We go through four molecules from ChEMBL document CHEMBL1201862, “PubChem BioAssay data set” (2004).

Among the test systems are A498; BT-549; CCRF-CEM; COLO 205; HCT-116; HCT-15; HOP-62; HOP-92; IGROV-1; LOX IMVI; MDA-MB-435; Malme-3M; NCI-H23; OVCAR-4; OVCAR-5; PC-3; SF-295; SK-MEL-2; SW-620; UACC-257.
Experiment in all cases: inhibition of tumour cell growth, NCI panel, 48 h

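Values below derive from 48-hour exposures of cells grown in 96-well plates, with endpoints linearly interpolated between the two concentrations bracketing the appropriate inhibition level. GI50 is the concentration that inhibits growth by half.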 The source made the active and inactive calls. No stated cut-off is given here; in the data, active = GI50 up to about 1.1 µM and inactive = higher.

As for `OCCNC1c2cc(Cl)ccc2-c2c(Cl)cc(Cl)cc21` (stereo not given), the GI50 was 48 µM (inactive) with A498; > 100 µM (inactive) with BT-549; 23.2 µM (inactive) with CCRF-CEM; 54.8 µM (inactive) with COLO 205; 26.5 µM (inactive) in the assay on HCT-116; 33.7 µM in the assay with HCT-15. For the same molecule, the GI50 is 41.2 µM (inactive) with HOP-62; 20.3 µM (inactive) with HOP-92; 13.2 µM (inactive) with IGROV-1; 34.5 µM (inactive) in the assay with LOX IMVI; 35.6 µM (inactive) with MDA-MB-435; > 100 µM (inactive) with Malme-3M. The GI50 is 39.2 µM (inactive) with NCI-H23; 32.1 µM (inactive) with OVCAR-4; 42.2 µM (inactive) with OVCAR-5; 23.3 µM (inactive) with PC-3; 35.6 µM (inactive) in the assay on SF-295; 15.2 µM (inactive) in the assay on SK-MEL-2. Moreover, the GI50 with SW-620 was 30.3 µM (inactive); in the assay on UACC-257 it was 31.3 µM (inactive).

For `CN1C/C(=C\c2cccs2)C(O)/C(=C/c2cccs2)C1` (stereo not given), the GI50 in the assay on A498 is > 100 µM (inactive); in the assay with BT-549, > 100 µM (inactive); in the assay with CCRF-CEM, 27 µM (inactive); in the assay on COLO 205 it was 87.1 µM (inactive); in the assay with HCT-116, 72.4 µM (inactive); with HCT-15, > 100 µM. For the same molecule, the GI50 is > 100 µM (inactive) in the assay on HOP-62; 20.4 µM (inactive) in the assay on HOP-92; 53 µM (inactive) in the assay with IGROV-1; > 100 µM (inactive) with LOX IMVI; > 100 µM (inactive) with MDA-MB-435; 50.1 µM (inactive) with Malme-3M. In addition, the GI50 in the assay on NCI-H23 was > 100 µM (inactive); in the assay with OVCAR-4 it was 35.5 µM (inactive); with OVCAR-5, > 100 µM (inactive); with PC-3 it was > 100 µM (inactive); with SF-295, > 100 µM (inactive); in the assay with SK-MEL-2, > 100 µM (inactive). The GI50 with SW-620 was > 100 µM (inactive); with UACC-257 it was 89.5 µM (inactive).

Turning to `Nc1ccc2c(c1)CN1C(=O)c3ccccc3C1=N2` [DANIQUIDONE], the GI50 in the assay with A498 is 43.1 µM (inactive); in the assay on BT-549, > 93.3 µM (inactive); in the assay with CCRF-CEM, 10.7 µM (inactive); with COLO 205, 23.3 µM (inactive); with HCT-116, 16.7 µM (inactive); with HCT-15 it was 34.8 µM. Moreover, the GI50 with HOP-62 is 9.71 µM (inactive); with HOP-92, 36.9 µM (inactive); in the assay with IGROV-1, 34.2 µM (inactive); with LOX IMVI, 35.7 µM (inactive); with MDA-MB-435, 29.2 µM (inactive); in the assay with Malme-3M, 67 µM (inactive). Besides, the GI50 in the assay on NCI-H23 is 69 µM (inactive); with OVCAR-4, 91.8 µM (inactive); with OVCAR-5 it was 64.9 µM (inactive); in the assay on PC-3, 58.1 µM (inactive); in the assay on SF-295, 12.9 µM (inactive); in the assay on SK-MEL-2, > 79.8 µM (inactive). Besides, the figures for the GI50 with SW-620 and with UACC-257 were 24.5 µM (inactive) and 96.6 µM (inactive), respectively.

`O=Nc1c(-c2c(O)[nH]c3ccccc23)[nH]c2ccccc12` [INDIRUBIN-3-MONOXIME]: the GI50 with A498 is 2.29 µM (inactive); in the assay on BT-549, 8.11 µM (inactive); with CCRF-CEM, 4.4 µM (inactive); in the assay with COLO 205 it was 12.5 µM (inactive); in the assay with HCT-116, 2.52 µM (inactive); in the assay with HCT-15 it was 2.48 µM. The GI50 in the assay with HOP-62 is 7.23 µM (inactive); in the assay on HOP-92, 8.77 µM (inactive); in the assay with IGROV-1, 2.67 µM (inactive); with LOX IMVI, 3.86 µM (inactive); in the assay with MDA-MB-435, 3.79 µM (inactive); with Malme-3M it was 3.89 µM (inactive). The GI50 was 7.83 µM (inactive) in the assay on NCI-H23; 5.08 µM (inactive) with OVCAR-4; 7.26 µM (inactive) in the assay with OVCAR-5; 3.72 µM (inactive) in the assay with PC-3; 10.1 µM (inactive) in the assay on SF-295; 1.91 µM (inactive) with SK-MEL-2. The GI50 is 4.79 µM (inactive) in the assay on SW-620 and 18.3 µM (inactive) in the assay on UACC-257.
